Measured values taken from patent publication US4471131A, “Novel silyl esters of N-phosphonomethylglycine” (Monsanto Company, priority 1983, dated 1984).

What was measured:
Experiment in all cases: post-emergence herbicidal activity, greenhouse
Format in all cases: in vivo
[1] = tested on: Barnyardgrass
In short: (§1)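 Plants grown from seed or vegetative propagules in topsoil pans on a greenhouse sand bench, watered from below, were atomizer-sprayed at two to three weeks of age. The spray carried about 0.4% by weight emulsifier. Injury relative to unsprayed control pans was scored approximately two and four weeks after treatment.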

[2] = tested on: Canada Thistle; conditions: Table II, formulated immediately prior to treatment
In short: as §1

[3] = tested on: Cocklebur
In short: as §1

[4] = tested on: Common Lambsquarters
In short: as §1

[5] = tested on: Downy Brome
In short: as §1

[6] = tested on: Hemp Sesbania; conditions: Table III, 2 WAT
In short: as §1

[7] = tested on: Johnsongrass; conditions: Table II, formulated immediately prior to treatment
In short: as §1

[8] = tested on: Large Crabgrass; conditions: Table III; 2 WAT; 5.6 kg/h
In short: as §1

[9] = tested on: Morningglory
In short: as §1

[10] = tested on: Panicum Spp; conditions: Table III; 2 WAT; 5.6 kg/h
In short: as §1

[11] = tested on: Pennsylvania Smartweed
In short: as §1

[12] = tested on: Quackgrass; conditions: Table II, formulated immediately prior to treatment
In short: as §1

[13] = tested on: Rice; conditions: Table III, 2 WAT
In short: as §1

[14] = tested on: Soybean; conditions: Table III, 2 WAT
In short: as §1

[15] = tested on: Sugar Beet; conditions: Table III; 2 WAT; 5.6 kg/h
In short: as §1

[16] = tested on: Velvetleaf
In short: as §1

[17] = tested on: Wild Buckwheat; conditions: Table III, 2 WAT
In short: as §1

[18] = tested on: Yellow Nutsedge; conditions: Table II, formulated immediately prior to treatment
In short: as §1

[19] = Table II, 2 WAT, 5.6 kg/h, formulated immediately prior to treatment
[20] = Table II, 2 WAT, 11.2 kg/h, formulated immediately prior to treatment
[21] = Table II, 4 WAT, 5.6 kg/h, formulated immediately prior to treatment
[22] = Table II, 4 WAT, 11.2 kg/h, formulated immediately prior to treatment

With CC(C)(C)[Si](C)(C)OP(=O)(CNCC(=O)OCCc1ccccc1)O[Si](C)(C)C(C)(C)C [Ex. 10, Glycine, N--((Bis[((1,1-Dimethylethyl)Dimethylsilyl)Oxy]Phosphinyl)Methyl)-,2-Phenylethyl Ester Hydrate] the “Plant Response Index (K)” value [1, 19] was 1 (25-49% inhibition), the “Plant Response Index (K)” value [1, 20] was 2 (50-74% inhibition) and the “Plant Response Index (K)” value [1, 21] was 2 (50-74% inhibition). The “Plant Response Index (K)” value [1, 22] was 3 (75-99% inhibition), the “Plant Response Index (K)” value ([1]; Table III, 2 WAT, 5.6 kg/h) was 2 (50-74% inhibition) and the “Plant Response Index (A)” value ([2]; 2 WAT, 5.6 kg/h) was 0 (0-24% inhibition). The “Plant Response Index (A)” value ([2]; 2 WAT, 11.2 kg/h) was 2 (50-74% inhibition), the “Plant Response Index (A)” value ([2]; 4 WAT, 5.6 kg/h) was 0 (0-24% inhibition) and the “Plant Response Index (A)” value ([2]; 4 WAT, 11.2 kg/h) was 2 (50-74% inhibition). The “Plant Response Index (B)” value [3, 19] was 1 (25-49% inhibition), the “Plant Response Index (B)” value [3, 20] was 2 (50-74% inhibition) and the “Plant Response Index (B)” value [3, 21] was 0 (0-24% inhibition). The “Plant Response Index (B)” value [3, 22] was 2 (50-74% inhibition), the “Plant Response Index (B)” value ([3]; Table III, 2 WAT, 1.1 kg/h) was 0 (0-24% inhibition) and the “Plant Response Index (B)” value ([3]; Table III, 2 WAT, 5.6 kg/h) was 2 (50-74% inhibition). The “Plant Response Index (E)” value [4, 19] was 2 (50-74% inhibition), the “Plant Response Index (E)” value [4, 20] was 3 (75-99% inhibition) and the “Plant Response Index (E)” value [4, 21] was 3 (75-99% inhibition). The “Plant Response Index (E)” value [4, 22] was 3 (75-99% inhibition), the “Plant Response Index (E)” value ([4]; Table III, 2 WAT, 1.1 kg/h) was 2 (50-74% inhibition) and the “Plant Response Index (E)” value ([4]; Table III, 2 WAT, 5.6 kg/h) was 3 (75-99% inhibition). For the same molecule, the “Plant Response Index (J)” value [5, 19] was 0 (0-24% inhibition), the “Plant Response Index (J)” value [5, 20] was 1 (25-49% inhibition) and the “Plant Response Index (J)” value [5, 21] was 0 (0-24% inhibition). For the same molecule, the “Plant Response Index (J)” value [5, 22] was 1 (25-49% inhibition), the “Plant Response Index (J)” value ([5]; Table III, 2 WAT, 1.1 kg/h) was 0 (0-24% inhibition) and the “Plant Response Index (J)” value ([5]; Table III, 2 WAT, 5.6 kg/h) was 1 (25-49% inhibition). For the same molecule, the “Plant Response Index (R)” value ([6]; 1.1 kg/h) was 0 (0-24% inhibition), the “Plant Response Index (R)” value ([6]; 5.6 kg/h) was 0 (0-24% inhibition) and the “Plant Response Index (I)” value ([7]; 2 WAT, 5.6 kg/h) was 0 (0-24% inhibition). The “Plant Response Index (I)” value ([7]; 2 WAT, 11.2 kg/h) was 1 (25-49% inhibition), the “Plant Response Index (I)” value ([7]; 4 WAT, 5.6 kg/h) was 0 (0-24% inhibition) and the “Plant Response Index (I)” value ([7]; 4 WAT, 11.2 kg/h) was 1 (25-49% inhibition). The “Plant Response Index (T)” value [8] was 3 (75-99% inhibition), the “Plant Response Index (D)” value [9, 19] was 1 (25-49% inhibition) and the “Plant Response Index (D)” value [9, 20] was 2 (50-74% inhibition). For the same molecule, the “Plant Response Index (D)” value [9, 21] was 0 (0-24% inhibition), the “Plant Response Index (D)” value [9, 22] was 2 (50-74% inhibition) and the “Plant Response Index (D)” value ([9]; Table III, 2 WAT, 5.6 kg/h) was 0 (0-24% inhibition). For the same molecule, the “Plant Response Index (S)” value [10] was 3 (75-99% inhibition), the “Plant Response Index (F)” value [11, 19] was 1 (25-49% inhibition) and the “Plant Response Index (F)” value [11, 20] was 3 (75-99% inhibition). The “Plant Response Index (F)” value [11, 21] was 1 (25-49% inhibition), the “Plant Response Index (F)” value [11, 22] was 3 (75-99% inhibition) and the “Plant Response Index (F)” value ([11]; Table III, 2 WAT, 1.1 kg/h) was 2 (50-74% inhibition). For the same molecule, the “Plant Response Index (F)” value ([11]; Table III, 2 WAT, 5.6 kg/h) was 2 (50-74% inhibition), the “Plant Response Index (H)” value ([12]; 2 WAT, 5.6 kg/h) was 0 (0-24% inhibition) and the “Plant Response Index (H)” value ([12]; 2 WAT, 11.2 kg/h) was 1 (25-49% inhibition). For the same molecule, the “Plant Response Index (H)” value ([12]; 4 WAT, 5.6 kg/h) was 0 (0-24% inhibition), the “Plant Response Index (H)” value ([12]; 4 WAT, 11.2 kg/h) was 1 (25-49% inhibition) and the “Plant Response Index (O)” value ([13]; 1.1 kg/h) was 0 (0-24% inhibition). The “Plant Response Index (O)” value ([13]; 5.6 kg/h) was 0 (0-24% inhibition), the “Plant Response Index (L)” value ([14]; 1.1 kg/h) was 0 (0-24% inhibition) and the “Plant Response Index (L)” value ([14]; 5.6 kg/h) was 0 (0-24% inhibition). For the same molecule, the “Plant Response Index (M)” value [15] was 3 (75-99% inhibition), the “Plant Response Index (C)” value [16, 19] was 0 (0-24% inhibition) and the “Plant Response Index (C)” value [16, 20] was 2 (50-74% inhibition). The “Plant Response Index (C)” value [16, 21] was 0 (0-24% inhibition), the “Plant Response Index (C)” value [16, 22] was 2 (50-74% inhibition) and the “Plant Response Index (C)” value ([16]; Table III, 2 WAT, 5.6 kg/h) was 2 (50-74% inhibition). The “Plant Response Index (Q)” value ([17]; 1.1 kg/h) was 0 (0-24% inhibition), the “Plant Response Index (Q)” value ([17]; 5.6 kg/h) was 0 (0-24% inhibition) and the “Plant Response Index (G)” value ([18]; 2 WAT, 5.6 kg/h) was 1 (25-49% inhibition). The “Plant Response Index (G)” value ([18]; 2 WAT, 11.2 kg/h) was 2 (50-74% inhibition), the “Plant Response Index (G)” value ([18]; 4 WAT, 5.6 kg/h) was 2 (50-74% inhibition) and the “Plant Response Index (G)” value ([18]; 4 WAT, 11.2 kg/h) was 2 (50-74% inhibition).
